Measured values as given in patent US10905679B2, “TRPM8 receptor agonist compounds and uses thereof” (UNIVERSIDAD MIGUEL HERNANDEZ DE ELCHE, priority 2016, dated 2021).

Assays:
[1] = test system: TRPM8, TRPV1 and TRPA1 channels; experiment: Specificity by Ca2+ fluorescence microscopy in mouse dorsal root ganglion (DRG) neurons; format: cell-based; details: Fluo-4 AM fluorescence, FIG. 1
Description: Neurons obtained from a mouse dorsal root ganglion (DRG) were used to determine the specificity of the TZM-7 compound. These cells constitutively express the TRPM8, TRPV1 and TRPA1 channels, among others (the TRPV1 and TRPA1 channels are channels of the same family as the TRPM8 channel and are permeable to calcium). The intracellular Ca^2+ concentration was measured using fluorescence microscopy in order to view the activity of these channels. The cells were seeded with a density of 250,000 cells/well on round glass cover slips (18 mm diameter, […]) in 12-well plates (Costar) and cultured in Pure-EMEM during 3 days immediately before the Ca^2+ experiments. […] The cells that were not sensitive to the application of high potassium concentration were not analysed. […] The fluorescence measurements were taken using an Axiovert 200 inverted microscope from Zeiss (Oberkochen, Germany) coupled with an ORCA-ER CCD camera (Hamamatsu Photonics, Bridgewater, N.J.) and observed through a 10× magnification air lens. The Fluo-4 AM fluorescent probe was excited at 500 nm using a Lambda-10-2 filter wheel (Sutter Instruments, Novato, Calif.) and the emission fluorescence was filtered with a 535 nm longpass filter. […]

guinea pig = experiment: In vivo tear secretion measured using phenol red threads after ocular instillation; details: 10 μM, phenol red thread 30 seconds, p<0.05, comparable to menthol at 200 μM, FIG. 2
Description: The in vivo activity of the selected TRPM8 activating compounds (TZM-7) has been assessed in an animal model following the protocol described in Acosta M C et al., Invest Ophthalmol Vis Sci 2014 (Corneal sensory nerve activity in an experimental model of UV keratitis. Acosta M et al., Invest Ophthalmol Vis Sci May 1; 55(6):3403-12). […] Tear secretion can be measured using phenol red threads (Zone-Quick, Menicon, Nagoya, Japan) that are applied to the nasal edge of the lower eyelid for 30 seconds (after that time, the distance of the red-dyed thread is measured in mm).

TRPM8 = molecular target: T1, TRPM8 (Homo sapiens, UniProt Q7Z2W7); experiment: Ca2+ fluorimetry assay in CHO cell line stably expressing TRPM8; format: cell-based; details: CHO cells stably expressing TRPM8
T1 construct: expressed in transfected cells
Description: The cells were cultured in monolayer in EMEM medium (Earle's minimum essential medium with Earle's salts, Invitrogen) supplemented with 10% foetal bovine serum (FBS), 2 mM L-glutamine, 1% penicillin-streptomycin solution and […] of the Geneticin antibiotic (Sigma) and kept at 37° C. in a humidified atmosphere with 5% of CO2. Ca^2+ fluorimetry assays were carried out in order to determine the efficacy of the compounds on the TRPM8 channels. The cells were seeded in 96-well plates with a density of 25,000 cells per well. Three days after seeding, the medium was removed and 100 μl of the Fluo-4NW fluorescent probe from Invitrogen was added with a concentration of 5 μM in the presence of 0.02% pluronic acid; after 60 minutes of incubation at 37° C. in a humidified atmosphere with 5% of CO2, the fluorescence was measured in a microplate reader (POLARstar Omega) with a configuration of 485 nm for the excitation and 520 nm for the emission, during 20 cycles. […] In the wells that were used as negative controls, 1 μl of AMTB [N-(3-aminopropyl)-2-[(3-methylphenyl)methoxy]-N-(2-thienylmethyl)benzamide] was added to obtain a final concentration of 10 μM, to block the TRPM8 channels.
The amplitudes of the Ca^2+ increases, caused by the stimulation of the cells with the compounds, were measured by subtracting the basal fluorescence signal (mean intensity obtained before adding the compound) from the fluorescence peak obtained after applying the compounds. The obtained results were adjusted to a sigmoid function using the software suite of the GraphPad Prism computer program.

T1 sequence (Q7Z2W7 whole entry): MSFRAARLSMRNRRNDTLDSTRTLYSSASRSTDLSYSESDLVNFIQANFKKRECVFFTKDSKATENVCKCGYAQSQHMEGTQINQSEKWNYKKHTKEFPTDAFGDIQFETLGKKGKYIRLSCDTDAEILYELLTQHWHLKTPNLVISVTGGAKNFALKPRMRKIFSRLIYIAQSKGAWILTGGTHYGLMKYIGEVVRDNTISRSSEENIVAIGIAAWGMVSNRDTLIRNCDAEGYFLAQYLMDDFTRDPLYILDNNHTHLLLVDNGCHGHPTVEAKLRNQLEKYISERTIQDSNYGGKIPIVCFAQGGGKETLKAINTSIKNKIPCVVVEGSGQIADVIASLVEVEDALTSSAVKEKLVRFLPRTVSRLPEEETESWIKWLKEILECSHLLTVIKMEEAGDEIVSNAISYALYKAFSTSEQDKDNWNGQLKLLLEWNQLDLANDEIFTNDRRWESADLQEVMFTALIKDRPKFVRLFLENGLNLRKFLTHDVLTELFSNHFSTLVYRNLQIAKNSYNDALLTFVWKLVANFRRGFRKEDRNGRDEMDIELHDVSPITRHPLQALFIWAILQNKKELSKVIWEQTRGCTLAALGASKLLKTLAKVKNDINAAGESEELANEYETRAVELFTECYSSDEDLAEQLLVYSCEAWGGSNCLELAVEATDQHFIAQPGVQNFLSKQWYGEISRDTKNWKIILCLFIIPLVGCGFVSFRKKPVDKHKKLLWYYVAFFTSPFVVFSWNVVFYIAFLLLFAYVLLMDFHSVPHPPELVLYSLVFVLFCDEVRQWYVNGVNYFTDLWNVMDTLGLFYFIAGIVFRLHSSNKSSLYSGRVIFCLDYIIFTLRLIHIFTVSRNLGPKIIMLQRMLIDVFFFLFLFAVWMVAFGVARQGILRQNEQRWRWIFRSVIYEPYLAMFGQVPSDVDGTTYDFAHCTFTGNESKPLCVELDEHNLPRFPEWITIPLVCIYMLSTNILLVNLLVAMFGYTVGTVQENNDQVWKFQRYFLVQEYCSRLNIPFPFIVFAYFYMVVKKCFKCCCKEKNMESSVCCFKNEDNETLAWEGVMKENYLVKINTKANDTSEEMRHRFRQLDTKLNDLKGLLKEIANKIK

## COc1cc(OC)cc(-c2cn([C@@H]3C[C@H](C)CC[C@H]3C(C)C)nn2)c1 [TZM-7, 4-(3,5-dimethoxyphenyl)-1-((1R,2S,5R)-2-isopropyl-5-methylcyclohexyl)-1H-1,2,3-triazole]
[1]
  specificity to activate TRPM8 channels compared with other channels (TRPV1 and TRPA1): high specificity
Guinea pig
  rate of lachrymation (tear secretion): significantly increases the rate of lachrymation
TRPM8; 10 μM, Fluo-4NW fluorescence
  activation at 10 µM: 78.5 ± 30.6%
TRPM8; concentrations 0.1, 1, 10 and 100 μM, sigmoid fit
  EC50: 2910 ± 210 nM
